Experiments:
[1] = system: A549-ACE2; assay: phospholipidosis EC50; higher = less potent phospholipidosis inducer
[2] = system: A549-ACE2 infected with SARS-CoV-2; assay: cell count relative to DMSO; higher = less toxic; details: 24 h
[3] = system: HepG2; assay: relative viability EC50 (midpoint between 100% and the lowest measured viability); higher = less toxic; details: 72 h
[4] = system: Caco-2; assay: as above; details: 72 h
[5] = system: U2OS; assay: as above; details: 72 h
[6] = system: Vero E6; assay: as above; details: 72 h
[7] = system: Calu-3; assay: as above; details: 72 h
[8] = system: A549-ACE2 infected with SARS-CoV-2; assay: morphology score (similarity to uninfected cells); higher = more like uninfected cells; details: 24 h
[9] = system: A549-ACE2; assay: drug-induced phospholipidosis relative to tamoxifen; higher = more phospholipidosis
[10] = system: HepG2; assay: cell viability relative to DMSO; higher = less toxic; details: 72 h
[11] = system: Caco-2; assay: as above; details: 72 h
[12] = system: U2OS; assay: as above; details: 72 h
[13] = system: Vero E6; assay: as above; details: 72 h
[14] = system: Calu-3; assay: as above; details: 72 h
[15] = system: A549-ACE2 infected with SARS-CoV-2; assay: SARS-CoV-2 infection rate relative to DMSO; higher = more infection; details: 24 h
[16] = system: HepG2; assay: drug sensitivity score (DSS) for viability; higher = more toxic; extreme values may be limits of the assay; details: 72 h
[17] = system: Caco-2; assay: as above; details: 72 h
[18] = system: U2OS; assay: as above; details: 72 h
[19] = system: Vero E6; assay: as above; details: 72 h
[20] = system: Calu-3; assay: as above; details: 72 h

c1cc2c(cc1C1CCCCC1)c1c3n2CCNC3CCC1 (centres undefined) [tetrindole]
Details	SARS-CoV-2 infection rate [%]	cell count [%]	cell viability [%]	morphology score	phospholipidosis EC50 [µM]
[1], 24 h	–	–	–	–	6.5
[1], 48 h	–	–	–	–	2.52
[1], 72 h	–	–	–	–	3.19
[2], 0.1 µM	–	102	–	–	–
[2], 0.3 µM	–	101	–	–	–
[2], 1 µM	–	102	–	–	–
[2], 3 µM	–	117	–	–	–
[8], 0.1 µM	–	–	–	0.02	–
[8], 0.3 µM	–	–	–	0.07	–
[8], 1 µM	–	–	–	0.29	–
[8], 3 µM	–	–	–	0.87	–
[10], 1 nM	–	–	101	–	–
[10], 10 nM	–	–	107	–	–
[10], 100 nM	–	–	95.8	–	–
[10], 1000 nM	–	–	83.2	–	–
[10], 10000 nM	–	–	0.5	–	–
[11], 1 nM	–	–	101	–	–
[11], 10 nM	–	–	92.3	–	–
[11], 100 nM	–	–	92.9	–	–
[11], 1000 nM	–	–	98.5	–	–
[11], 10000 nM	–	–	6.9	–	–
[12], 1 nM	–	–	94.8	–	–
[12], 10 nM	–	–	104	–	–
[12], 100 nM	–	–	97.6	–	–
[12], 1000 nM	–	–	99.5	–	–
[12], 10000 nM	–	–	24.1	–	–
[13], 1 nM	–	–	97.9	–	–
[13], 10 nM	–	–	91.4	–	–
[13], 100 nM	–	–	97.1	–	–
[13], 1000 nM	–	–	93.9	–	–
[13], 10000 nM	–	–	1.3	–	–
[14], 1 nM	–	–	91.3	–	–
[14], 10 nM	–	–	94.9	–	–
[14], 100 nM	–	–	93.8	–	–
[14], 1000 nM	–	–	88.7	–	–
[14], 10000 nM	–	–	0.8	–	–
[15], 0.1 µM	102	–	–	–	–
[15], 0.3 µM	96	–	–	–	–
[15], 1 µM	77	–	–	–	–
[15], 3 µM	28	–	–	–	–

Details	drug sensitivity score	relative viability EC50
[3]	–	1880 nM
[4]	–	3050 nM
[5]	–	3110 nM
[6]	–	2680 nM
[7]	–	2.22 µM
[16]	8.3	–
[17]	5.4	–
[18]	4.3	–
[19]	6.4	–
[20]	7.4	–

drug-induced phospholipidosis [%], [9]
Details	0.3 µM	0.833333 µM	3.33333 µM	6.66667 µM	10 µM	30 µM
24 h	5.21	10.2	71.6	84.5	84.9	215
48 h	7.95	8.82	80.8	101	115	–
72 h	7.78	3.52	72.2	101	122	–

O=C(c1ccc(Nc2nccc(-c3cc4ccccc4s3)n2)cc1)N1CCC(N2CCCC2)CC1 [IKK-16]
Details	SARS-CoV-2 infection rate [%]	cell count [%]	cell viability [%]	morphology score	phospholipidosis EC50 [µM]
[1], 24 h	–	–	–	–	1.05
[1], 48 h	–	–	–	–	1.53
[1], 72 h	–	–	–	–	1.1
[2], 0.1 µM	–	102	–	–	–
[2], 0.3 µM	–	93	–	–	–
[2], 1 µM	–	111	–	–	–
[2], 3 µM	–	109	–	–	–
[8], 0.1 µM	–	–	–	-0.12	–
[8], 0.3 µM	–	–	–	-0.2	–
[8], 1 µM	–	–	–	0.57	–
[8], 3 µM	–	–	–	0.49	–
[10], 1 nM	–	–	95.9	–	–
[10], 10 nM	–	–	108	–	–
[10], 100 nM	–	–	91.6	–	–
[10], 1000 nM	–	–	86.9	–	–
[10], 10000 nM	–	–	-0.2	–	–
[11], 1 nM	–	–	97.6	–	–
[11], 10 nM	–	–	102	–	–
[11], 100 nM	–	–	98.9	–	–
[11], 1000 nM	–	–	79.8	–	–
[11], 10000 nM	–	–	9.4	–	–
[12], 1 nM	–	–	97.4	–	–
[12], 10 nM	–	–	95.5	–	–
[12], 100 nM	–	–	97.6	–	–
[12], 1000 nM	–	–	91.7	–	–
[12], 10000 nM	–	–	0.8	–	–
[13], 1 nM	–	–	97.4	–	–
[13], 10 nM	–	–	99.5	–	–
[13], 100 nM	–	–	99.5	–	–
[13], 1000 nM	–	–	97.6	–	–
[13], 10000 nM	–	–	-0.2	–	–
[15], 0.1 µM	101	–	–	–	–
[15], 0.3 µM	104	–	–	–	–
[15], 1 µM	62	–	–	–	–
[15], 3 µM	19	–	–	–	–

Details	drug sensitivity score	relative viability EC50 [nM]
[3]	–	2100
[4]	–	1640
[5]	–	2480
[6]	–	2980
[16]	7.7	–
[17]	8.2	–
[18]	6.8	–
[19]	5.9	–

drug-induced phospholipidosis [%], [9]
Details	0.3 µM	0.833333 µM	3.33333 µM	6.66667 µM	10 µM	30 µM
24 h	-2.91	8.17	163	140	179	55.6
48 h	-0.02	5.69	114	107	125	–
72 h	0.998	5.79	108	91.2	–	–

Clc1ccc2c(c1)N=C(N1CCNCC1)c1ccccc1N2 [desmethylclozapine]
Details	SARS-CoV-2 infection rate [%]	cell count [%]	cell viability [%]	morphology score	phospholipidosis EC50 [µM]
[1], 24 h	–	–	–	–	6.54
[1], 48 h	–	–	–	–	6.43
[1], 72 h	–	–	–	–	8.34
[2], 0.3 µM	–	100	–	–	–
[2], 3 µM	–	112	–	–	–
[2], 10 µM	–	115	–	–	–
[2], 30 µM	–	121	–	–	–
[8], 0.3 µM	–	–	–	0.09	–
[8], 3 µM	–	–	–	0.63	–
[8], 10 µM	–	–	–	0.76	–
[8], 30 µM	–	–	–	0.73	–
[10], 1 nM	–	–	97.3	–	–
[10], 10 nM	–	–	105	–	–
[10], 100 nM	–	–	96.8	–	–
[10], 1000 nM	–	–	104	–	–
[10], 10000 nM	–	–	87.7	–	–
[11], 1 nM	–	–	88	–	–
[11], 10 nM	–	–	94.2	–	–
[11], 100 nM	–	–	92.9	–	–
[11], 1000 nM	–	–	98.5	–	–
[11], 10000 nM	–	–	99.1	–	–
[12], 1 nM	–	–	106	–	–
[12], 10 nM	–	–	103	–	–
[12], 100 nM	–	–	100	–	–
[12], 1000 nM	–	–	102	–	–
[12], 10000 nM	–	–	97.6	–	–
[13], 1 nM	–	–	103	–	–
[13], 10 nM	–	–	107	–	–
[13], 100 nM	–	–	94.2	–	–
[13], 1000 nM	–	–	102	–	–
[13], 10000 nM	–	–	93	–	–
[14], 1 nM	–	–	104	–	–
[14], 10 nM	–	–	114	–	–
[14], 100 nM	–	–	104	–	–
[14], 1000 nM	–	–	116	–	–
[14], 10000 nM	–	–	91.8	–	–
[15], 0.3 µM	96	–	–	–	–
[15], 3 µM	62	–	–	–	–
[15], 10 µM	28	–	–	–	–
[15], 30 µM	13	–	–	–	–

Details	drug sensitivity score	relative viability EC50
[3]	–	> 10000 nM
[4]	–	> 10000 nM
[5]	–	> 10000 nM
[6]	–	> 10000 nM
[7]	–	> 10 µM
[16]	0	–
[17]	0	–
[18]	0	–
[19]	0	–
[20]	0	–

drug-induced phospholipidosis [%], [9]
Details	0.3 µM	0.833333 µM	3.33333 µM	6.66667 µM	10 µM	30 µM
24 h	3.47	2.91	27	53.9	65.2	91.3
48 h	4.09	3.86	21.2	55.4	70.7	95.8
72 h	4.5	2.24	18.3	49.2	76.1	116

Nc1ncnc2c1c(-c1cccc(OCc3ccccc3)c1)cn2C1CC(CN2CCCC2)C1 (stereo in doubt) [NVP-ADW742]
Details	SARS-CoV-2 infection rate [%]	cell count [%]	cell viability [%]	morphology score	phospholipidosis EC50 [µM]
[1], 24 h	–	–	–	–	5.36
[1], 72 h	–	–	–	–	3.26
[2], 0.1 µM	–	104	–	–	–
[2], 0.3 µM	–	93	–	–	–
[2], 1 µM	–	82	–	–	–
[2], 3 µM	–	101	–	–	–
[8], 0.1 µM	–	–	–	0.14	–
[8], 0.3 µM	–	–	–	0.2	–
[8], 1 µM	–	–	–	0.46	–
[8], 3 µM	–	–	–	0.75	–
[10], 1 nM	–	–	89.3	–	–
[10], 10 nM	–	–	97.4	–	–
[10], 100 nM	–	–	101	–	–
[10], 1000 nM	–	–	69.9	–	–
[10], 10000 nM	–	–	23.2	–	–
[11], 1 nM	–	–	98.9	–	–
[11], 10 nM	–	–	96.1	–	–
[11], 100 nM	–	–	98.4	–	–
[11], 1000 nM	–	–	74.6	–	–
[11], 10000 nM	–	–	34.1	–	–
[12], 1 nM	–	–	99.1	–	–
[12], 10 nM	–	–	98	–	–
[12], 100 nM	–	–	99	–	–
[12], 1000 nM	–	–	88.9	–	–
[12], 10000 nM	–	–	43.7	–	–
[13], 1 nM	–	–	99.9	–	–
[13], 10 nM	–	–	95.6	–	–
[13], 100 nM	–	–	97.6	–	–
[13], 1000 nM	–	–	98.1	–	–
[13], 10000 nM	–	–	58.2	–	–
[14], 1 nM	–	–	99.2	–	–
[14], 10 nM	–	–	93.1	–	–
[14], 100 nM	–	–	107	–	–
[14], 1000 nM	–	–	102	–	–
[14], 10000 nM	–	–	44.2	–	–
[15], 0.1 µM	98	–	–	–	–
[15], 0.3 µM	94	–	–	–	–
[15], 1 µM	75	–	–	–	–
[15], 3 µM	30	–	–	–	–

Details	drug sensitivity score	relative viability EC50
[3]	–	1190 nM
[4]	–	1230 nM
[5]	–	1750 nM
[7]	–	3.32 µM
[16]	8.3	–
[17]	7	–
[18]	4.9	–
[19]	2.4	–
[20]	2.9	–

drug-induced phospholipidosis [%], [9]
Details	0.3 µM	0.833333 µM	3.33333 µM	6.66667 µM	10 µM	30 µM
24 h	8.61	13.3	31.4	113	145	158
48 h	8.35	9.24	33.7	54.9	–	–
72 h	7.79	5.46	31.5	52.2	–	–
